# Values quoted from earlier work, collected in patent publication US20220354784A1, “STABLE LATANOPROST COMPOUND OPHTHALMIC COMPOSITIONS” (Somerset Therapeutics LLC, priority 2021, published 2022).
# Conditions: patients starting on monotherapy
row,SMILES,rate of adjunctive medication use [%]
1,CCNC(=O)CCC/C=C\C[C@@H]1[C@@H](/C=C/[C@@H](O)CCc2ccccc2)[C@H](O)C[C@@H]1O [bimatoprost],23.2
2,CC(C)OC(=O)CCC/C=C\C[C@@H]1[C@@H](/C=C/[C@@H](O)COc2cccc(C(F)(F)F)c2)[C@H](O)C[C@@H]1O [travoprost],22.5
3,"CC(C)OC(=O)CCC/C=C\C[C@@H]1[C@@H](CC[C@@H](O)CCc2ccccc2)[C@H](O)C[C@@H]1O [latanoprost, isopropyl (Z)-7[(1R,2R,3R,5S)3,5-dihydroxy-2-[(3R)-3-hydroxy-5-phenylpentyl]cyclopentyl]-5-heptanoate]",30.2
